From US9290541B2, “TCL1 peptides for immunotherapy” (Board of Regents, The University of Texas System, priority 2011, dated 2016)

Legend:
CD4+ and CD8+ T cells = assay: Intracellular cytokine assay (IFN-γ) of peptide-stimulated T cell lines; format: cell-based, human; details: T cell lines from HLA-A2+ normal donors
Experimental: (§1) FIGS. 3A-E: TCL1-specific cytotoxic T cells can be generated from normal donors. (FIG. 3A) PBMCs from HLA-A2^+ normal donors were stimulated with overlapping 15-mer peptides spanning the entire length of the TCL1 protein (see Table 2). T cells from each condition were washed and incubated with autologous CD3-depleted PBMC as antigen-presenting cells (APC) in the presence or absence of the corresponding peptide. After 18 hours, the production of IFN-γ was determined in the supernatants by ELISA. Asterisk indicates significant IFN-γ production compared with control (P<0.05). Representative data from one of three normal donors tested is shown. (FIG. 3B) T cell lines generated from HLA-A2^+ normal donors using TCL165-79 peptide were incubated with APC in the presence or absence of the TCL165-79 peptide or control HIV Gag77-85 peptide, and intracellular cytokine assay was performed. […] IFN-γ production was determined as in (FIG. 3A). […]
Flow cytometry. […] After two washes, samples were acquired on a FACS Calibur (BD Biosciences) and analyzed using Cell Quest Pro (BD Biosciences) or FlowJo (Tree Star, Inc., Ashland, Oreg.) software. […] For tetramer staining, PE-conjugated TCL171-78 tetramer or HIV Gag77-85 tetramer and FITC-conjugated mouse anti-human CD8 antibody were mixed with the cells in 50 μl volume for 30 minutes at room temperature, washed twice, and analyzed by a flow cytometry.

[1] = test system: PBMC from HLA-A2+ normal donors; assay: IFN-γ ELISA of T cells stimulated with overlapping 15-mer TCL1 peptides; format: cell-based, human; details: three HLA-A2+ normal donors; 10 μg/ml peptide, 5 stimulations; ELISA after 18 hours
Experimental: as §1, with “performed. The percentage of CD4^+ and CD8^+ T cells producing IFN-γ are shown.” for “performed.”
Peptide-specific T-cell lines were generated from HLA-A2^+ normal donors and patients using methods previously reported (Hida et al., 2002). […] After 18 hours, the production of interferon (IFN)-γ was determined in the supernatants by ELISA. […]

For TQIGPSLLPIMWQLY [TCL165-79], the “IFN-γ production by CD4+ and CD8+ T cells in response to peptide” value (CD4+ and CD8+ T cells) was “CD8^+ but not CD4^+ T cells produced IFN-γ” and the “induction of peptide-specific IFN-γ-producing T cells” value [1] was “consistently induced peptide-specific IFN-γ-producing T cells”.
